Molecules are shown by their SMILES.

The subject of experiment [1] is SET-2 cells (JAK2 V617F). Kind of experiment: Inhibition of cell proliferation by MTT experiment, SET-2. The format is cell-based. The settings on record: Homo sapiens, SET-2; MTT, 72 h; read-out: IC50 value on cell proliferation inhibition, SET-2 (V617F). A digest of the protocol:
(§1)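 MTT assay in MV4-11, MOLM-13 (FLT3-ITD) and SET-2 (JAK2 V617F) cells at 10,000–15,000 cells/well in IMDM with 10% FBS. Cells are exposed to compound for 72 h at 37 °C, then to MTT for 1–3 h. IC50 is fitted from inhibition rates across concentrations.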

Experiment [2] concerns the target T1, FLT3 (Homo sapiens, UniProt P36888).
T1 construct: purchased Eurofins
T1 sequence (P36888 27-993): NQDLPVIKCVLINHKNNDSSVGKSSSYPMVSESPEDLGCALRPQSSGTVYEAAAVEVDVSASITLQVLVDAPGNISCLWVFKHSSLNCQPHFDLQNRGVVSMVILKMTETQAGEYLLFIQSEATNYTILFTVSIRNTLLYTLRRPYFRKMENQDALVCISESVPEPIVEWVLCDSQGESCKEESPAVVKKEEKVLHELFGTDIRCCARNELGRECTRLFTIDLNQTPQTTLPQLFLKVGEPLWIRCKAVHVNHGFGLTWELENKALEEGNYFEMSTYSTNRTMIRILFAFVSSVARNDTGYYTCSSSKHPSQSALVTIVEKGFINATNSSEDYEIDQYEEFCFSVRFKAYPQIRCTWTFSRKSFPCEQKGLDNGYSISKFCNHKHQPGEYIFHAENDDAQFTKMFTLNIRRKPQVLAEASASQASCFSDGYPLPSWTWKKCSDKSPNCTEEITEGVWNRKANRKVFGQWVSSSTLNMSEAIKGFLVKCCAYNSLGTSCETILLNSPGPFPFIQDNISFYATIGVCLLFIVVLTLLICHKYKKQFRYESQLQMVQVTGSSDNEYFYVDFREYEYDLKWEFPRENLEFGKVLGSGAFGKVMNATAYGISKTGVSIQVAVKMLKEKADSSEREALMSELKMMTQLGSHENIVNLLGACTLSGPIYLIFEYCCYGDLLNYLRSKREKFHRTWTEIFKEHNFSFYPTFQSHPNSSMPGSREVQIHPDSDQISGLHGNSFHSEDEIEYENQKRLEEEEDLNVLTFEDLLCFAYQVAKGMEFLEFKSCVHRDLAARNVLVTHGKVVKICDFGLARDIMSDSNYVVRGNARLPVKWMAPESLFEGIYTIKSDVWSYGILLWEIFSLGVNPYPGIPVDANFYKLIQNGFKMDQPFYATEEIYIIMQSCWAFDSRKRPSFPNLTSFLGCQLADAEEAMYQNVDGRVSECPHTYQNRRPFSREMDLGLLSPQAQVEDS
Kind of experiment: In vitro kinase activity experiment, FLT3. The settings on record: 40 min; inhibition rate of enzyme at 500 nM; measured by Eurofins; read-out: Kinase activity @ 500 nM (%) FLT3. The format is biochemical. An outline of the steps: (§2)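 Reactions began on MgATP addition after the kinase, substrate, γ33P-ATP, 10 mM magnesium acetate and compound series were mixed in MOPS buffer pH 7.0 with EDTA and MnCl2. After 40 min at room temperature, phosphate quench, filter-mat capture and washing, incorporated 33P was measured by scintillation counting.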

For experiment [3], the target named is T2, JAK2 (Homo sapiens, UniProt O60674).
T2 construct: purchased Eurofins
T2 sequence (O60674 whole entry): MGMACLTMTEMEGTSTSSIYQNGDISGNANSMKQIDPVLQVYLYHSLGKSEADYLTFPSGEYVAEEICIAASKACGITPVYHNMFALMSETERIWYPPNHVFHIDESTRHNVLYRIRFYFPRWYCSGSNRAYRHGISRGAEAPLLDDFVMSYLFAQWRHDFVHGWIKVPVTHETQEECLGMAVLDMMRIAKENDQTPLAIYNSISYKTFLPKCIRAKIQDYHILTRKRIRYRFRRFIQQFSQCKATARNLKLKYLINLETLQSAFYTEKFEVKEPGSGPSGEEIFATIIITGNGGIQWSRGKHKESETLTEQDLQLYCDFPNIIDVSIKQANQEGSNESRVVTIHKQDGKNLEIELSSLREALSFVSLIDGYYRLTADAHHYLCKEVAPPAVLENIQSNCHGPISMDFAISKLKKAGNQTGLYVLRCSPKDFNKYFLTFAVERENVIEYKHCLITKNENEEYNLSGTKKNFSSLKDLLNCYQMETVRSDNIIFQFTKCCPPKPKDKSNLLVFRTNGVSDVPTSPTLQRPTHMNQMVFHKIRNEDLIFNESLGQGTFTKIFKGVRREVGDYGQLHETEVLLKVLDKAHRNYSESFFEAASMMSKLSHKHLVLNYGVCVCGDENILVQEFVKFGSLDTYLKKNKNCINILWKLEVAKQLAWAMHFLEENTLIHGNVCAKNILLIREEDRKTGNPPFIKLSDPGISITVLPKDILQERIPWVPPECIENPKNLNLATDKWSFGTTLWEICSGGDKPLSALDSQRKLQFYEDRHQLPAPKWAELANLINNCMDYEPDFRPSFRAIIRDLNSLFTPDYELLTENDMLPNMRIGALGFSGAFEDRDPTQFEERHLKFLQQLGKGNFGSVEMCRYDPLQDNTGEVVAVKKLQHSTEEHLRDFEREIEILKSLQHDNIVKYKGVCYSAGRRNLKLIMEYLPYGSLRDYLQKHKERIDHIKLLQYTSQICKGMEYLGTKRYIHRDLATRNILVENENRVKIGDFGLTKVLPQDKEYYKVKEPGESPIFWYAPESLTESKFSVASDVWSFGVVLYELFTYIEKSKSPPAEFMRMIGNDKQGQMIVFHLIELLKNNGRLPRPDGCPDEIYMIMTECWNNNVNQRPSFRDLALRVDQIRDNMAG
As to the kind of experiment: In vitro kinase activity experiment, JAK2. The format is biochemical. The settings on record: inhibition rate of enzyme at 500 nM; measured by Eurofins. An outline of the steps:
as §2

Experiment [4] relates to MV4-11 cells (FLT3-ITD+/+). Kind of experiment: Inhibition of cell proliferation by MTT experiment, MV4-11. The format is cell-based, human. The settings on record: Homo sapiens, MV4-11; MTT, 72 h; read-out: IC50 value on cell proliferation inhibition, MV4-11 FLT3-ITD+/+. A digest of the protocol: as §1
The test system of experiment [5] is MOLM-13 cells (FLT3-ITD-/+). As to the kind of experiment: Inhibition of cell proliferation by MTT experiment, MOLM-13. The format is cell-based, human. The settings on record: Homo sapiens, MOLM-13; MTT, 72 h; read-out: IC50 value on cell proliferation inhibition, MOLM-13 FLT3-ITD-/+. A digest of the protocol: as §1

Consider `Cc1cnc(Nc2ccc(CNC(=O)/C=C/CN(C)C)cc2)nc1-c1cnn(C(C)C)c1` [CLJ-79, (E)-N-(4-((4-(1-isopropyl-1H-pyrazole-4-yl)-5-methylpyrimidine-2-yl)amino)benzyl)-4-dimethylamino-2-butenamide], for which the IC50 in experiment [1], in experiment [4] and in experiment [5] was 100 to 1000 nM each time. In addition, the inhibition at 0.5 µM in experiment [2] worked out at 45%. In experiment [3], the “Kinase activity @ 500 nM (%) JAK2” value was 44%.
Regarding `Cc1cnc(Nc2ccc(CCNC(=O)/C=C/CN(C)C)cc2)nc1-c1cnn(C(C)C)c1` [CLJ-80, (E)-N-(4-((4-(1-isopropyl-1H-pyrazole-4-yl)-5-methylpyrimidine-2-yl)amino)phenylethyl)-4-dimethylamino-2-butenamide], the IC50 in experiment [1] is > 1000 nM; in experiment [4] it was 100 to 1000 nM; in experiment [5], > 1000 nM. Besides, the inhibition at 0.5 µM in experiment [2] was determined as 23%. Moreover, the “Kinase activity @ 500 nM (%) JAK2” value in experiment [3] amounted to 34%.
With `Cc1cnc(Nc2ccc(CNC(=O)/C=C/C(=O)c3ccccc3)cc2)nc1-c1cnn(C(C)C)c1` [CLJ-81, N-(4-((4-(1-isopropyl-1H-pyrazole-4-yl)-5-methylpyrimidine-2-yl)amino)benzyl)-3-benzoyl acrylamide], the IC50 in experiment [1], in experiment [4] and in experiment [5] was > 1000 nM each time. Moreover, the inhibition at 0.5 µM in experiment [2] is 22%. Moreover, the “Kinase activity @ 500 nM (%) JAK2” value in experiment [3] was found to be 34%.
With `Cc1cnc(Nc2ccc(CCNC(=O)/C=C/C(=O)c3ccccc3)cc2)nc1-c1cnn(C(C)C)c1` [CLJ-82, N-(4-((4-(1-isopropyl-1H-pyrazole-4-yl)-5-methylpyrimidine-2-yl)amino)phenethyl)-3-benzoyl acrylamide], the IC50 in experiment [1], in experiment [4] and in experiment [5] was > 1000 nM each time. The inhibition at 0.5 µM in experiment [2] turned out to be 12%. Further, the “Kinase activity @ 500 nM (%) JAK2” value in experiment [3] was 20%.
As to `Cc1cnc(Nc2ccc(CNC(=O)CCCN(C)C)cc2)nc1-c1cnn(C(C)C)c1` [CLJ-83, N-(4-((4-(1-isopropyl-1H-pyrazole-4-yl)-5-methylpyrimidine-2-yl)amino)benzyl)-4-dimethylaminobutyramide], the IC50 lay within 100 to 1000 nM in experiment [1], 10 to 100 nM in experiment [4] and 10 to 100 nM in experiment [5]. In experiment [2], the inhibition at 0.5 µM was determined as 89%. The “Kinase activity @ 500 nM (%) JAK2” value in experiment [3] is recorded as 88%.
With `Cc1cnc(Nc2ccc(CCNC(=O)CCCN(C)C)cc2)nc1-c1cnn(C(C)C)c1` [CLJ-84, N-(4-((4-(1-isopropyl-1H-pyrazole-4-yl)-5-methylpyrimidine-2-yl)amino)phenethyl)-4-dimethylaminobutyramide], the IC50 in experiment [1], in experiment [4] and in experiment [5] was 100 to 1000 nM in each case. Besides, in experiment [2], the inhibition at 0.5 µM turned out to be 78%. Moreover, the “Kinase activity @ 500 nM (%) JAK2” value in experiment [3] is listed as 79%.
Turning to `Cc1cnc(Nc2ccc(CNC(=O)CCl)cc2)nc1-c1cnn(C(C)C)c1` [CLJ-85, N-(4-((4-(1-isopropyl-1H-pyrazole-4-yl)-5-methylpyrimidine-2-yl)amino)benzyl)-2-chloroacetamide], the IC50 in experiment [1] is > 1000 nM; in experiment [4] it was 100 to 1000 nM; in experiment [5] it was > 1000 nM. In addition, the inhibition at 0.5 µM in experiment [2] was 67%. The “Kinase activity @ 500 nM (%) JAK2” value in experiment [3] was 56%.
Consider `Cc1cnc(Nc2ccc(CCNC(=O)CCl)cc2)nc1-c1cnn(C(C)C)c1` [CLJ-86, N-(4-((4-(1-isopropyl-1H-pyrazole-4-yl)-5-methylpyrimidine-2-yl)amino)phenethyl)-2-chloroacetamide], for which the IC50 is > 1000 nM in experiment [1], 100 to 1000 nM in experiment [4] and > 1000 nM in experiment [5]. Moreover, the inhibition at 0.5 µM in experiment [2] stood at 45%. For the same molecule, in experiment [3], the “Kinase activity @ 500 nM (%) JAK2” value is given as 37%.
Regarding `Cc1cnc(Nc2ccc(CNC(=O)CCCl)cc2)nc1-c1cnn(C(C)C)c1` [CLJ-87, N-(4-((4-(1-isopropyl-1H-pyrazole-4-yl)-5-methylpyrimidine-2-yl)amino)benzyl)-3-chloropropanamide], the IC50 in experiment [1], in experiment [4] and in experiment [5] was > 1000 nM in each case. For the same molecule, the inhibition at 0.5 µM in experiment [2] is 45%. In experiment [3], the “Kinase activity @ 500 nM (%) JAK2” value amounted to 39%.
Take `Cc1cnc(Nc2ccc(CCNC(=O)CCCl)cc2)nc1-c1cnn(C(C)C)c1` [CLJ-88, N-(4-((4-(1-isopropyl-1H-pyrazole-4-yl)-5-methylpyrimidine-2-yl)amino)phenethyl)-3-chloropropanamide]: the IC50 in experiment [1], in experiment [4] and in experiment [5] was > 1000 nM throughout. Also, in experiment [2], the inhibition at 0.5 µM was found to be 32%. Also, the “Kinase activity @ 500 nM (%) JAK2” value in experiment [3] worked out at 20%.
Turning to `C=CS(=O)(=O)NCc1ccc(Nc2ncc(C)c(-c3cnn(C(C)C)c3)n2)cc1` [CLJ-89], the IC50 is 10 to 100 nM in experiment [1], 100 to 1000 nM in experiment [4] and > 1000 nM in experiment [5]. The inhibition at 0.5 µM in experiment [2] turned out to be 47%. Moreover, in experiment [3], the “Kinase activity @ 500 nM (%) JAK2” value turned out to be 99%.
`C=CS(=O)(=O)NCCc1ccc(Nc2ncc(C)c(-c3cnn(C(C)C)c3)n2)cc1` [CLJ-90]: the results for the IC50 in experiment [1], in experiment [4] and in experiment [5] were 100 to 1000 nM, 10 to 100 nM and 10 to 100 nM, respectively. Also, the inhibition at 0.5 µM in experiment [2] was 95%. In addition, in experiment [3], the “Kinase activity @ 500 nM (%) JAK2” value is given as 97%.
For the molecule `CCS(=O)(=O)c1nn(C(C)C)cc1-c1nc(Nc2ccc(N3CCC(N(C)CCO)CC3)c(F)c2)ncc1C` [CLJ-92, 5-methyl-N-(3-fluoro-4-(4-N-hydroxyethyl-4-N-methylaminopiperidine-1-yl)phenyl)-4-(1-isopropyl-3-ethylsulfonyl-1H-pyrazole-4-yl) pyrimidine-2-amine], the IC50 in experiment [1] is 100 to 1000 nM; in experiment [4], 10 to 100 nM; in experiment [5], 10 to 100 nM. Further, in experiment [2], the inhibition at 0.5 µM was found to be 98%. Also, the “Kinase activity @ 500 nM (%) JAK2” value in experiment [3] came out at 104%.
For `Cc1cnc(Nc2ccc(NC(=O)[C@H]3CCCN3)c(F)c2)nc1-c1cnn(C(C)C)c1` [CLJ-93, (R)-2-((2-fluoro-4-((4-(1-isopropyl-1H-pyrazole-4-yl)-5-methylpyrimidine-2-yl)amino)phenyl)carbamoyl) pyrrolidine], the IC50 in experiment [1] is 100 to 1000 nM; in experiment [4] it was 10 to 100 nM; in experiment [5], 10 to 100 nM. Moreover, the inhibition at 0.5 µM in experiment [2] was found to be 97%. Moreover, the “Kinase activity @ 500 nM (%) JAK2” value in experiment [3] is listed as 100%.
For the molecule `Cc1cnc(Nc2ccc(NS(=O)(=O)c3ccc4c(c3)CC(=O)N4)c(F)c2)nc1-c1cnn(C(C)C)c1` [CLJ-95, N-(2-fluoro-4-((4-(1-isopropyl-1H-pyrazole-4-yl)-5-methylpyrimidine-2-yl)amino)phenyl)-2-oxoindoline-5-sulfonamide], the IC50 in experiment [1], in experiment [4] and in experiment [5] was 100 to 1000 nM each time. Besides, the inhibition at 0.5 µM in experiment [2] came to 67%. Besides, the “Kinase activity @ 500 nM (%) JAK2” value in experiment [3] amounted to 66%.
In the case of `Cc1cnc(Nc2ccc(NC(=O)[C@H]3CCCN3CC3CC3)c(F)c2)nc1-c1cnn(C(C)C)c1` [CLJ-96, (R)-1-(cyclopropylmethyl)-N-(2-fluoro-4-((4-(1-isopropyl-1H-pyrazole-4-yl)-5-methylpyrimidine-2-yl)amino)phenyl) pyrrolidine-2-carboxamide], the IC50 in experiment [1], in experiment [4] and in experiment [5] was 100 to 1000 nM each time. The inhibition at 0.5 µM in experiment [2] amounted to 56%. The “Kinase activity @ 500 nM (%) JAK2” value in experiment [3] was found to be 73%.

The values above are taken from US12428394B2, “2,4-disubstituted pyrimidine derivative, preparation method therefor and use thereof” (CHENGDU ZENITAR BIOMEDICAL TECHNOLOGY CO., LTD., priority 2019, dated 2025).
